Patent US20070134349A1, “Methods of treating hematological malignancies” (DUKE UNIVERSITY, priority 2005, published 2007)

How the values were obtained:
[1] = in humans; cited from earlier work
[2] = plasma, humans; cited from earlier work
C/EBPβ = test: Western blot of phospho-C/EBPβ (Thr-235) and C/EBPβ in NB4 cells; format: cell-based
Description: (§1) Whole-cell lysates were prepared by washing the cells with PBS and resuspending them in 1 ml of lysis buffer (1× phosphate-buffered saline, 1 mM EDTA, 1.5 mg/ml of iodoacetamide, 100 μM sodium orthovanadate, 0.5% Triton X-100, 20 mM β-glycerolphosphate, 0.2 mM phenylmethylsulfonyl fluoride, and 1× complete protease inhibitor cocktail). After clarification by a 15-min centrifugation in a microcentrifuge at 4° C., the resulting supernatant was collected. 20-50 μg of protein extracts were separated on a 10% SDS-polyacrylamide gel and transferred to a nitrocellulose membrane. The membrane was blocked with 5% nonfat milk followed by incubation with antibodies. The immunocomplex was visualized by chemiluminescence.

NB4 cells [3] = test: Differentiation markers CD11c/CD11b by flow cytometry in NB4 cells; format: cell-based; details: for NB4 cell differentiation (CD11c): 21 h; for NB4 differentiation: FIG. 10
Description: (§2) NB4 cells were provided by Dr. Ronald Evans (Salk Institute, La Jolla, Calif.). NB4-R4 cells were provided by Dr. Wilson Miller (McGill University, Montreal, Canada). HL-60, U-937, and Kasumi-1 cells were obtained from the American Type Culture Collection (Rockville, Md.). NB4 and NB4-R4 cells were grown in RPMI medium 1640 containing 10% fetal bovine serum. U-937 cells were grown in RPMI medium 1640 containing 10 mM HEPES, 1 mM sodium pyruvate, 4.5 g/L glucose, and 10% fetal bovine serum. HL-60 cells were grown in Iscove's Modified Dulbecco's medium containing 20% fetal bovine serum. Kasumi-1 cells were grown in RPMI medium 1640 containing 10 mM HEPES, 1 mM sodium pyruvate, 4.5 g/L glucose, and 20% fetal bovine serum.
(§3) To determine the percentage of cells that express differentiation markers, cells were washed once and resuspended in RPMI medium 1640 containing 3% fetal bovine serum. Phycoerythrin (PE)-conjugated CD11b, 5 Allophycocyanin (APC)-CD11c or control antibodies (BD Pharmingen, San Diego, Calif.) were added into cell suspension. After 30 minutes of incubation in the dark at 4° C., the cells were washed twice and resuspended in RPMI medium 1640 containing 7-amino actinomycin D (AAD) (for dead cell exclusion) and analyzed by FACScan (Becton Dickinson).

NB4 cells [4] = test: Apoptosis by Annexin V binding (flow cytometry) in NB4 cells; format: cell-based
Description: as §2
(§4) To determine the percentage of cells that undergo apoptosis, after incubation with APC-CD11c antibody in the dark at 4° C., cells were washed twice with PBS and incubated at room temperature for 15 min with PE-conjugated Annexin-V (BD Pharmingen) and 7-AAD in binding buffer (10 mM HEPES, pH 7.4, 140 mM NaCI, 2.5 mM CaCl2) and analyzed by FACScan for CD11c expression and Annexin V binding. Apoptotic cells are those that stained positive for Annexin V and negative for 7-AAD.

NB4-R4 cells = test: CD11c/CD11b expression by flow cytometry in ATRA-resistant NB4-R4 cells; format: cell-based; details: ATRA treatment, 3 days
Description: as §2, §3

PML-RARα = target: T1, PML-RARα (Homo sapiens, UniProt P10276+P29590); test: Western blot of PML-RARα and RARα in NB4 cells; format: cell-based; details: 3 days
T1 construct: PML portion (fusion partner, UniProt P29590); endogenous in cells; host or cells: NB4 cells
T1 sequence (P29590+P10276 with tags, fused parts or gaps): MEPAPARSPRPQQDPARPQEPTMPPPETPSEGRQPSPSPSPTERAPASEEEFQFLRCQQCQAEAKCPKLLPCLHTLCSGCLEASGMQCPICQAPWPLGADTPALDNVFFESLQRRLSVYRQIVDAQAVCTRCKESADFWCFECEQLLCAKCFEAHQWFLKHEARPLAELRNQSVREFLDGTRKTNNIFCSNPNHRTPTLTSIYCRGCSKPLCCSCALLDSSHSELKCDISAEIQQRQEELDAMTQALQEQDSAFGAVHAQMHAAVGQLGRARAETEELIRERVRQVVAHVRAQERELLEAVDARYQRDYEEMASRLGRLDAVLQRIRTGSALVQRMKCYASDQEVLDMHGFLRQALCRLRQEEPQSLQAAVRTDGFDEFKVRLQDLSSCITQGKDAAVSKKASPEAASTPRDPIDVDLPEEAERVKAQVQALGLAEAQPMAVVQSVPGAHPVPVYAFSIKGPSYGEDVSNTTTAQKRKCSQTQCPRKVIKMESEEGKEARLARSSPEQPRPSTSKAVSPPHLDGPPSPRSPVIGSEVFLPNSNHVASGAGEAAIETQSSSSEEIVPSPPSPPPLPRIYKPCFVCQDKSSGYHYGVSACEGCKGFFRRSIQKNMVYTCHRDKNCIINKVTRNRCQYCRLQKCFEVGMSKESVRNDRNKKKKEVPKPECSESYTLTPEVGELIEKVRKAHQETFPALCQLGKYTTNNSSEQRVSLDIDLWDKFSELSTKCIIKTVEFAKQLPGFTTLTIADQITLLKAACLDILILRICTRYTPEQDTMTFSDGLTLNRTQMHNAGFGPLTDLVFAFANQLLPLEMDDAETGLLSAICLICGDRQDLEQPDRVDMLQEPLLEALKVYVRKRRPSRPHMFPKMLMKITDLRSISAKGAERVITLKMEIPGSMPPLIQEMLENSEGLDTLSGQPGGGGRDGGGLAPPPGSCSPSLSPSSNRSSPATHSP
Description: as §1

RARE-TK-Luc reporter = RARE-TK-Luc reporter transient transfection in NB4 cells; format: cell-based; details: ATRA 1 μM, 19 h
Description: Electroporation was performed using a Gene Pulser (BioRad, Hercules, Calif.) apparatus at 300 V and 960 μF capacity. […] Cells were harvested 19 h after transfection/treatment for luciferase and β-galactosidase activities.

H3 [5] = test: Western blot of phospho-H3 (Ser-10) in NB4 cells; format: cell-based; details: for H3 phosphorylation (Ser-10): NB4 cells, 24 h
Description: as §1

ERK1/2 [6] = test: Western blot of phospho-ERK1/2 in NB4 cells; format: cell-based; details: 24 h
Description: as §1

ERK1/2 [7] = test: Western blot of phospho-ERK1/2 in U-937 cells; format: cell-based; details: higher concentrations, 18 h, total ERK1/2 unaffected
Description: as §1

HL-60 cells = test: CD11c expression by flow cytometry in HL-60 cells; format: cell-based; details: 48 h
Description: as §2, §3

H3 [8] = test: Western blot of acetyl-H3 and phospho-H3 in U-937 cells; format: cell-based; details: higher concentrations, 18 h
Description: as §1

U-937 cells [9] = test: Annexin V binding in U-937 cells; format: cell-based; details: higher concentrations, 3 days
Description: as §2, §4

histones H3 and H4 = test: Western blot of acetylated histones H3 and H4 in NB4 cells; format: cell-based; details: concentrations required for apoptosis, NB4 cells, 24 h
Description: as §1

U-937 cells [10] = test: CD11c expression by flow cytometry in U-937 cells; format: cell-based; details: lower concentrations, 3 days
Description: as §2, §3

Kasumi-1 cells = test: CD11c expression by flow cytometry in Kasumi-1 cells; format: cell-based; details: 3 days
Description: as §2, §3

[11] = p38 inhibitor treatment of NB4 cells (data not shown)

Compound: Phenylbutyrate
- tolerability [1]: well-tolerated
- half-life in vivo t1/2 [2]: 60 min

Compound: N#CC(=C(/N)Sc1ccccc1N)/C(C#N)=C(\N)Sc1ccccc1N [U0126]
- MAA- or BA-induced phosphorylation of C/EBPβ at Thr-235 (C/EBPβ; U0126 5 μM, 17 h, absolute protein level unchanged): blocks
- ATRA-induced differentiation (NB4 cells [3]; U0126 pretreatment 2 h, then ATRA 1 μM 21 h, NB4 cells): less dramatic effect
- MAA and BA-dependent differentiation as assessed by CD11c expression (NB4 cells [3]; U0126 pretreatment 2 h, then MAA 5 mM or BA 1 mM 21 h, NB4 cells): dramatically reduced
- number of BA-treated cells undergoing apoptosis (NB4 cells [4]): significantly increased

Compound: CC1=C(/C=C/C(C)=C/C=C/C(C)=C/C(=O)O)C(C)(C)CCC1 [ATRA, all-trans-Retinoic acid]
- sensitivity of NB4-R4 cells versus NB4 parental line (CD11c, CD11b) (NB4-R4 cells): less sensitive
- expression level of PML-RARα fusion protein (PML-RARα): induced the degradation
- transcription of RARE-containing reporter gene (RARE-TK-Luc) (RARE-TK-Luc reporter): can activate transcription
- effect on percentage of cells expressing CD11c compared with 1 nM MAA (NB4 cells [3]; 0.1 nM ATRA, NB4 cells, 24 h): same order of magnitude
- percentage of cells expressing CD11b (NB4 cells [3]; ATRA 10 nM alone, NB4 cells, 24 h, from 26%): 51%
- NB4 cell differentiation (CD11c) (NB4 cells [3]; ATRA 1 μM): can induce NB4 cell differentiation

Compound: CCCC(CCC)C(=O)O [VPA, valproic acid]
- percentage of NB4 cells expressing CD11c (NB4 cells [3]; NB4 cells, FIG. 9): did not significantly increase
- apoptosis (NB4 cells [4]; as concentrations increase, NB4 cells, FIG. 9): potently induces apoptosis

Compound: COCCC(=O)O [3-methoxypropionic acid]
- NB4 differentiation (NB4 cells [3]; NB4 cells): potent inducers

Compound: C[S+]([O-])c1ccc(-c2nc(-c3ccncc3)c(-c3ccc(F)cc3)[nH]2)cc1 (centres unmarked) [SB203580]
- effect on H3 phosphorylation at Ser-10 (H3 [5]; [11]): little effect
- effect on apoptosis (NB4 cells [4]; [11]): little effect

Compound: CCC(=O)O [propionic acid]
- NB4 differentiation (NB4 cells [3]; NB4 cells): potent inducers

Compound: [Na+].[Na+].[Na+].[O]=[V]([O-])([O-])[O-] [sodium orthovanadate]
- apoptosis of NB4 cells in response to HDACI treatment (NB4 cells [4]; tyrosine phosphatase inhibitor treatment (data not shown)): did not inhibit

Compound: O=C(CCCCCCC(=O)Nc1ccccc1)NO [SAHA, suberoylanilide hydroxamic acid]
- differentiation (NB4 cells [3]; SAHA at lower concentrations, NB4 cells (data not shown)): facilitated differentiation
- apoptosis (NB4 cells [4]; SAHA at higher concentrations, NB4 cells (data not shown)): effectively induced apoptosis

Compound: CCOCC(=O)O [ethoxyacetic acid]
- NB4 differentiation (NB4 cells [3]; NB4 cells): potent inducers

Compound: CCCC(=O)O [BA, butyric acid]
- levels of phosphorylated ERK (ERK1/2 [6]; higher concentrations (no differentiating effects), total ERK not decreased): dramatically decreased
- constitutive levels of phosphorylated ERK (ERK1/2 [6]; lower concentrations): did not change
- tolerability [1]: well-tolerated
- half-life in vivo t1/2 [2]: 6 min
- activity of ERK1/2 (phospho-ERK1/2) (ERK1/2 [7]): downregulate
- differentiation as evidenced by expression of CD11c (HL-60 cells): induce differentiation
- H3 acetylation and phosphorylation (H3 [8]): increase
- apoptosis (Annexin V) (U-937 cells [9]): inducing apoptosis
- level of phosphorylated C/EBPβ at Thr-235 (C/EBPβ; 17 h): increases phosphorylation
- phosphorylation of C/EBPβ at Thr-235 (C/EBPβ; lower concentrations, 24 h): maximal phosphorylation
- H3 and H4 acetylation (histones H3 and H4): robust acetylation
- H3 phosphorylation (Ser-10) (H3 [5]; higher concentrations): dramatically increased
- H3 phosphorylation (Ser-10) (H3 [5]; lower concentrations): without effect
- expression of the differentiation marker CD11c (U-937 cells [10]): increasing expression
- percentage of cells expressing CD11c (Kasumi-1 cells): increased
- differentiation (CD11c) (NB4 cells [3]; BA 0.5 mM and 1 mM, NB4 cells, 24 h): differentiation was observed
- NB4 cell differentiation (CD11c) (NB4 cells [3]; BA 1 mM): can induce NB4 cell differentiation
- differentiation (CD11c) (NB4 cells [3]; BA 5 mM (or higher), NB4 cells, 24 h): failed to differentiate
- NB4 differentiation (NB4 cells [3]; NB4 cells): potent inducers
- apoptosis (Annexin V) (NB4 cells [4]; BA 1 mM, NB4 cells, 21 h): effectively induces apoptosis

Compound: arsenic trioxide [ATO]
- expression level of PML-RARα fusion protein (PML-RARα): induced the degradation
- apoptosis (Annexin V) (NB4 cells [4]; ATO 0.1 μM, 0.5 μM alone, NB4 cells, 3 days): does not induce significant amount of apoptosis
